In general, pIC50 refers to the IC50 on a negative log10 scale, so that one unit is a factor of ten. A lower pIC50 goes with a large IC50.

The experiment concerns the target T1, HSP90α (Homo sapiens, UniProt P07900).
T1 construct: 6H is tagged HSP90α protein (amino acids 2-732) expressed in E. coli; 6His; made in house; host or cells: E. coli
The experiment can be described thus: Test (a) In Vitro Binding Assay (fluorescence polarisation, binding to the ATP pocket of HSP90α). The following applies: FP probe displacement, geometric mean where tested more than once. As to the method: Test (a) In Vitro Binding Assay
Test (a) measures the ability of a compound to bind to the ATP pocket of HSP90α. 6H is tagged HSP90α protein (amino acids 2-732) expressed in E. coli was purified and stored at −80° C. in aliquots. Assay measurements were performed in assay buffer comprising 20 mM HEPES pH 7.4, 50 mM KCl, 20 mM NaHMoO4, 0.01% Nonidet P40, 2 mM DTT and 0.1 mg/ml BSA. Following resuspension in DMSO, the FP probe 3-[[5-(5-ethyl-2,4-dihydroxy-phenyl)-4-(4-methoxyphenyl)2H-pyrazole-3-carbonyl]amino]propyl-Cy3B-amide; 14-(2-{[3-({[3-(5-ethyl-2,4-dihydroxyphenyl)-4-(4-methoxyphenyl)-1H-pyrazol-5-yl]carbonyl}amino)propyl]amino}-2-oxoethyl)-16,16,18,18-tetramethyl-2-sulfo-6,7,7a,8a,9,10,16,18-octahydrobenzo[2″,3″]indolizino [8″,7″:5′,6′]pyrano[3′,2′:3,4]pyrido[1,2-a]indol-5-ium) was diluted to a final concentration of 5 nM in assay buffer. Test compounds were prepared by dilution in 100% DMSO to give the appropriate dose range and dispensed into a 384 well assay plate as a 6X concentrate. Upon addition of recombinant HSP90α to a final assay concentration of 1 μg/ml, FP probe was added and plates incubated at room temperature for 1 to 4 hours. Final DMSO concentration was 1% in a total assay volume of 18 μl. Fluorescence Polarisation measurements were made using a Tecan Ultra plate reader using an excitation wavelength of 530 nm and an emission wavelength of 590 nm. Millipolarisation (mP) values were estimated using Xfluor software.
The data in the above table was generated in an assay substantially as described above in relation to in-vitro Binding Assay (a). Some of the compounds shown in the table were tested more than once in the assay. For those compounds the IC50 value shown is the geometric mean of the measured IC50 values. Therefore, as will be understood, the IC50 values quoted above are not absolute and further measurements of the IC50 values may result in a different mean IC50 value.

SMILES strings stand for the structures. pIC50: −log10 of the molar value.

Consider `COc1c(C)cnc(CN2CC(=O)N(CCC(C)C)c3c(Cl)nc(N)nc32)c1C` [Example 11.6, 2-amino-4-chloro-8-[(4-methoxy-3,5-dimethylpyridin-2-yl)methyl]-5-(3-methylbutyl)-7,8-dihydropteridin-6(5H)-one], for which the pIC50 is 7.01. For `COc1c(C)cnc(CN2c3nc(N)ncc3N(CCC(C)C)C(=O)[C@H]2C)c1C` [Example 11.7, (7R)-2-amino-8-[(4-methoxy-3,5-dimethylpyridin-2-yl)methyl]-7-methyl-5-(3-methylbutyl)-7,8-dihydropteridin-6(5H)-one], the pIC50 is 6.43. Compared with the last compound, the pIC50 is 0.58 log units lower. For `CCCN1C(=O)[C@@H](C)N(Cc2ncc(C)c(OC)c2C)c2nc(N)ncc21` [Example 11.8, (7R)-2-amino-8-[(4-methoxy-3,5-dimethylpyridin-2-yl)methyl]-7-methyl-5-propyl-7,8-dihydropteridin-6(5H)-one], the pIC50 is 6.26. As for `COc1c(C)cnc(CN2c3nc(N)ncc3N(Cc3ccccc3)C(=O)[C@H]2C)c1C` [Example 11.9, (7R)-2-amino-5-benzyl-8-[(4-methoxy-3,5-dimethylpyridin-2-yl)methyl]-7-methyl-7,8-dihydropteridin-6(5H)-one], the pIC50 is 6.49. Regarding `COc1c(C)cnc(CN2c3nc(N)ncc3N(CC3CC3)C(=O)[C@H]2C)c1C` [Example 11.10, (7R)-2-amino-5-(cyclopropylmethyl)-8-[(4-methoxy-3,5-dimethylpyridin-2-yl)methyl]-7-methyl-7,8-dihydropteridin-6(5H)-one], the pIC50 is 6.10. Consider `COc1c(C)cnc(CN2c3nc(N)ncc3N(CCN3CCCC3)C(=O)[C@H]2C)c1C` [Example 11.11, (7R)-2-amino-8-[(4-methoxy-3,5-dimethylpyridin-2-yl)methyl]-7-methyl-5-(2-pyrrolidin-1-ylethyl)-7,8-dihydropteridin-6(5H)-one], for which the pIC50 was 5.22.

Compound `COc1c(C)cnc(CN2c3nc(N)ncc3N(CC(C)(C)N(C)C)C(=O)[C@H]2C)c1C` [Example 11.12, (7R)-2-amino-5-[2-(dimethylamino)-2-methylpropyl]-8-[(4-methoxy-3,5-dimethylpyridin-2-yl)methyl]-7-methyl-7,8-dihydropteridin-6(5H)-one] gave a pIC50 of 4.80. For `COc1c(C)cnc(CN2c3nc(N)ncc3N(CCCN(C)C)C(=O)[C@H]2C)c1C` [Example 11.13, (7R)-2-amino-5-[3-(dimethylamino)propyl]-8-[(4-methoxy-3,5-dimethylpyridin-2-yl)methyl]-7-methyl-7,8-dihydropteridin-6(5H)-one] the value was 5.31. Consider `COc1c(C)cnc(CN2c3nc(N)ncc3N(CCN3CCOCC3)C(=O)[C@H]2C)c1C` [Example 11.14, (7R)-2-amino-8-[(4-methoxy-3,5-dimethylpyridin-2-yl)methyl]-7-methyl-5-(2-morpholin-4-ylethyl)-7,8-dihydropteridin-6(5H)-one], for which the pIC50 is 5.62. This pIC50 is 0.31 log units higher than that of the compound before. To `COc1c(C)cnc(CN2c3nc(N)ncc3N(CCc3ccncc3)C(=O)[C@H]2C)c1C` [Example 11.15, (7R)-2-amino-8-[(4-methoxy-3,5-dimethylpyridin-2-yl)methyl]-7-methyl-5-(2-pyridin-4-ylethyl)-7,8-dihydropteridin-6(5H)-one] belongs 6.25; to `COc1c(C)cnc(CN2c3nc(N)ncc3N(CCc3cccnc3)C(=O)[C@H]2C)c1C` [Example 11.16, (7R)-2-amino-8-[(4-methoxy-3,5-dimethylpyridin-2-yl)methyl]-7-methyl-5-(2-pyridin-3-ylethyl)-7,8-dihydropteridin-6(5H)-one], 6.27.

`COc1c(C)cnc(CN2c3nc(N)ncc3N(CCCc3cccnc3)C(=O)[C@H]2C)c1C` [Example 11.17, (7R)-2-amino-8-[(4-methoxy-3,5-dimethylpyridin-2-yl)methyl]-7-methyl-5-(3-pyridin-3-ylpropyl)-7,8-dihydropteridin-6(5H)-one]: the pIC50 was 5.83. Compound `COc1c(C)cnc(CN2CC(=O)N(CCc3cccnc3)c3c(Cl)nc(N)nc32)c1C` [Example 11.18, 2-amino-4-chloro-8-[(4-methoxy-3,5-dimethylpyridin-2-yl)methyl]-5-(2-pyridin-3-ylethyl)-7,8-dihydropteridin-6(5H)-one] showed a pIC50 of 6.78. This pIC50 is 0.95 log units higher than that of the compound before. `CCCN1C(=O)CN(Cc2ncc(C)c(OC)c2C)c2nc(N)ncc21` [Example 11.19, 2-amino-8-[(4-methoxy-3,5-dimethylpyridin-2-yl)methyl]-5-propyl-7,8-dihydropteridin-6(5H)-one] gave a pIC50 of 6.21. Take `COc1c(C)cnc(CN2c3nc(N)ncc3N(CCN3CCNC3=O)C(=O)[C@H]2C)c1C` [Example 11.20, (7R)-2-amino-8-[(4-methoxy-3,5-dimethylpyridin-2-yl)methyl]-7-methyl-5-[2-(2-oxoimidazolidin-1-yl)ethyl]-7,8-dihydropteridin-6(5H)-one]: the pIC50 is 5.57. `COc1c(C)cnc(CN2c3nc(N)ncc3N(CCN3CCCC3=O)C(=O)[C@H]2C)c1C` [Example 11.21, (7R)-2-amino-8-[(4-methoxy-3,5-dimethylpyridin-2-yl)methyl]-7-methyl-5-[2-(2-oxopyrrolidin-1-yl)ethyl]-7,8-dihydropteridin-6(5H)-one]: the pIC50 is 5.34. As for `COc1c(C)cnc(CN2CC(=O)N(Cc3ccccc3)c3c(Cl)nc(N)nc32)c1C` [Example 11.22, 2-amino-5-benzyl-4-chloro-8-[(4-methoxy-3,5-dimethylpyridin-2-yl)methyl]-7,8-dihydropteridin-6(5H)-one], the pIC50 is 6.54. To `CCCN1C(=O)CN(Cc2ncc(C)c(OC)c2C)c2nc(N)nc(Cl)c21` [Example 11.23, 2-amino-4-chloro-8-[(4-methoxy-3,5-dimethylpyridin-2-yl)methyl]-5-propyl-7,8-dihydropteridin-6(5H)-one] belongs 7.30. Compound `COc1c(C)cnc(CN2CC(=O)N(CCc3ccccc3)c3c(Cl)nc(N)nc32)c1C` [Example 11.24, 2-amino-4-chloro-8-[(4-methoxy-3,5-dimethylpyridin-2-yl)methyl]-5-(2-phenylethyl)-7,8-dihydropteridin-6(5H)-one] showed a pIC50 of 7.09.

Turning to `COc1c(C)cnc(CN2c3nc(N)ncc3NC(=O)[C@H]2CC(=O)O)c1C` [Example 12, {(7R)-2-amino-8-[(4-methoxy-3,5-dimethylpyridin-2-yl)methyl]-6-oxo-5,6,7,8-tetrahydropteridin-7-yl}acetic acid], the pIC50 was 5.13. For `COc1c(C)cnc(CN2c3nc(N)ncc3NC(=O)[C@H]2CC(N)=O)c1C` [Example 13, 2-{(7R)-2-amino-8-[(4-methoxy-3,5-dimethylpyridin-2-yl)methyl]-6-oxo-5,6,7,8-tetrahydropteridin-7-yl}acetamide], the pIC50 is 5.76. For `COc1c(C)cnc(CN2c3nc(N)ncc3NC(=O)[C@H]2CC(=O)NCCCN(C)C)c1C` [Example 14.1, 2-{(7R)-2-amino-8-[(4-methoxy-3,5-dimethylpyridin-2-yl)methyl]-6-oxo-5,6,7,8-tetrahydropteridin-7-yl}-N-[3-(dimethylamino)propyl]acetamide] the value was 5.79. For the compound `COc1c(C)cnc(CN2c3nc(N)ncc3NC(=O)[C@H]2CC(=O)NCCN(C)C)c1C` [Example 14.2, 2-{(7R)-2-amino-8-[(4-methoxy-3,5-dimethylpyridin-2-yl)methyl]-6-oxo-5,6,7,8-tetrahydropteridin-7-yl}-N-[2-(dimethylamino)ethyl]acetamide], the pIC50 was 5.79. To `COc1c(C)cnc(CN2CC(=O)Nc3c(C)nc(N)nc32)c1C` [Example 15, 2-amino-8-[(4-methoxy-3,5-dimethyl-pyridin-2-yl)methyl]-4-methyl-5,7-dihydropteridin-6-one] belongs 6.09.

The values above are taken from patent US7799781B2, “5,6,7,8-tetrahydropteridine derivatives as HSP90 inhibitors” (AstraZeneca AB, priority 2007, dated 2010).
